Source: patent US8669271B2 (Boehringer Ingelheim International GmbH, priority 2010, dated 2014)
pEC50: −log10 of the molar value.

These molecules were tested against T1, human GPR119 (Homo sapiens, UniProt Q8TDV5) (assay: AlphaScreen cAMP assay in Min-6/hGPR119 cells (activation of GPR119, intracellular cAMP)). Settings: MIN6 cells stably transfected with human GPR119; cAMP by AlphaScreen after 45 minutes incubation at room temperature.
T1 construct: expression vector for human GPR119 cDNA (Acc. No. NP_848566); expressed in transfected cells
T1 sequence (Q8TDV5 1-335): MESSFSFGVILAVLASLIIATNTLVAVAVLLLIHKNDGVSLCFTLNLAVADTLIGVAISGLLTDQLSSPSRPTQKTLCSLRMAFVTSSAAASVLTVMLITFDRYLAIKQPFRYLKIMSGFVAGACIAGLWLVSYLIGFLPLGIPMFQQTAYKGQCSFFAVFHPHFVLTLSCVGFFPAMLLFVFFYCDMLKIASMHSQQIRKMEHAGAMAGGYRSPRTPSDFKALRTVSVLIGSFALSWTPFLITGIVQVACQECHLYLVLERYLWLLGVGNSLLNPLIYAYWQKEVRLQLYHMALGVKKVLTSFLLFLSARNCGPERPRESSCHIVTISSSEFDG
Type: cell-based
Protocol: The compounds of formula I according to the invention modulate the activity of the G-protein-coupled receptor GPR119. The effect of the compounds on the activation of GPR119 and on the stimulation of intracellular cAMP concentration is determined using the AlphaScreen cAMP Assay Kit (Cat.No.#6760625R) made by PerkinElmer.
MIN6 cells [Miyazaki J et al. Endocrinology. 1990 July; 127(1):126-32] are stably transfected with an expression vector for human GPR119 cDNA (Acc. No. NP_848566). Min-6/hGPR119 cells are cultured in DMEM, 10% FBS, 50 μM β-mercaptoethanol, 0.3 mg/mL Geniticin, 2 mM GlutaMAX at 37° C. 5% CO2. For the assay, the cells are seeded in Optiplates (white, 384-well, 160W— barcoded, TC, sterile with lid, Cat.No.#6007688 (Perkin Elmer); 10000 cells/well; 50 μl). The plates covered with lids are then incubated for 24 hours at 37° C./5% CO2. After the medium is aspirated from the wells completely, 10 μl of the test compound are added, the compounds are diluted using stimulating buffer (140 mM NaCl, 3.6 mM KCl, 0.5 mM NaH2PO4, 0.5 mM MgSO4, 1.5 mM CaCl2, 10 mM Hepes, 5 mM NaHCO3; pH 7.4. 0.5 mM IBMX and 0.1% BSA, the final DMSO concentration is 1%). After 45 minutes incubation at room temperature (approx. 20° C.), the cAMP concentrations are determined using the AlphaScreen cAMP Assay Kit (Cat.No.#6760625R from PerkinElmer).

Row | Compound | pEC50
1 | CC(C)(C)OC(=O)N1CCC(C2Cc3cc(-c4ccc(CC#N)cc4)ncc3O2)CC1 (stereo not shown) [Example 31, 4-[5-(4-Cyanomethyl-phenyl)-2,3-dihydro-furo[2,3-c]pyridin-2-yl]-piperidine-1-carboxylic acid tert-butyl ester] | 7.41
2 | CCNC(=O)c1ccc(-c2cc3c(cn2)OC(C2CCN(C(=O)OC(C)(C)C)CC2)C3)cc1 (stereo not shown) [Example 32, 4-[5-(4-Ethylcarbamoyl-phenyl)-2,3-dihydro-furo[2,3-c]pyridin-2-yl]-piperidine-1-carboxylic acid tert-butyl ester] | 7.68
3 | CC(C)(C)OC(=O)N1CCC(C2Cc3cc(-c4cncnc4)ncc3O2)CC1 (stereo not shown) [Example 33, 4-(5-Pyrimidin-5-yl-2,3-dihydro-furo[2,3-c]pyridin-2-yl)-piperidine-1-carboxylic acid tert-butyl ester] | 6.72
4 | CC(C)(C)OC(=O)N1CCC(C2Cc3cc(-c4ccc(S(C)(=O)=O)c(F)c4)ncc3O2)CC1 (stereo not shown) [Example 34, 4-[5-(3-Fluoro-4-methanesulfonyl-phenyl)-2,3-dihydro-furo[2,3-c]pyridin-2-yl]-piperidine-1-carboxylic acid tert-butyl ester] | 8.05
5 | CC(C)(C)OC(=O)N1CCC(C2Cc3cc(-c4ccc(CS(C)(=O)=O)cc4F)ncc3O2)CC1 (stereo not shown) [Example 35, 4-[5-(2-Fluoro-4-methanesulfonylmethyl-phenyl)-2,3-dihydro-furo[2,3-c]pyridin-2-yl]-piperidine-1-carboxylic acid tert-butyl ester] | 7.77
6 | CNS(=O)(=O)c1ccc(-c2cc3c(cn2)OC(C2CCN(C(=O)OC(C)(C)C)CC2)C3)cc1 (stereo not shown) [Example 36, 4-[5-(4-Methylsulfamoyl-phenyl)-2,3-dihydro-furo[2,3-c]pyridin-2-yl]-piperidine-1-carboxylic acid tert-butyl ester] | 7.48
7 | CC(C)(C)OC(=O)N1CCC(C2Cc3cc(-c4ccc(NS(C)(=O)=O)cc4)ncc3O2)CC1 (stereo not shown) [Example 37, 4-[5-(4-Methanesulfonylamino-phenyl)-2,3-dihydro-furo[2,3-c]pyridin-2-yl]-piperidine-1-carboxylic acid tert-butyl ester] | 7.51
8 | Cc1noc(C)c1-c1cc2c(cn1)OC(C1CCN(C(=O)OC(C)(C)C)CC1)C2 (stereo not shown) [Example 38, 4-[5-(3,5-Dimethyl-isoxazol-4-yl)-2,3-dihydro-furo[2,3-c]pyridin-2-yl]-piperidine-1-carboxylic acid tert-butyl ester] | 6.24
9 | CC(C)(C)OC(=O)N1CCC(C2Cc3cc(-c4cnco4)ncc3O2)CC1 (stereo not shown) [Example 39, 4-(5-Oxazol-5-yl-2,3-dihydro-furo[2,3-c]pyridin-2-yl)-piperidine-1-carboxylic acid tert-butyl ester] | 6.82
10 | CC(C)(C)OC(=O)N1CCC(C2Cc3cc(-c4ccc(C(N)=O)cn4)ccc3O2)CC1 (stereo not shown) [Example 40, 4-[5-(5-Carbamoyl-pyridin-2-yl)-2,3-dihydro-benzofuran-2-yl]-piperidine-1-carboxylic acid tert-butyl ester] | 6.80
11 | CC(C)(C)OC(=O)N1CCC(C2Cc3cc(-c4ccncc4)ncc3O2)CC1 (stereo not shown) [Example 41, 4-(5-Pyridin-4-yl-2,3-dihydro-furo[2,3-c]pyridin-2-yl)-piperidine-1-carboxylic acid tert-butyl ester] | 7.47
12 | CNC(=O)c1ccc(-c2ccc3c(c2)CC(C2CCN(C(=O)OC(C)(C)C)CC2)O3)nc1 (stereo not shown) [Example 42, 4-[5-(5-Methylcarbamoyl-pyridin-2-yl)-2,3-dihydro-benzofuran-2-yl]-piperidine-1-carboxylic acid tert-butyl ester] | 7.19
13 | CC(C)(C)OC(=O)N1CCC(C2Cc3cc(-c4ccncc4C#N)ccc3O2)CC1 (stereo not shown) [Example 43, 4-[5-(3-Cyano-pyridin-4-yl)-2,3-dihydro-benzofuran-2-yl]-piperidine-1-carboxylic acid tert-butyl ester] | 6.57
14 | CC(C)(C)OC(=O)N1CCC(C2Cc3cc(-c4ccc(C#N)nc4)ncc3O2)CC1 (stereo not shown) [Example 44, 4-[5-(6-Cyano-pyridin-3-yl)-2,3-dihydro-furo[2,3-c]pyridin-2-yl]-piperidine-1-carboxylic acid tert-butyl ester] | 7.52
15 | CC(C)(C)OC(=O)N1CCC(C2Cc3cc(-c4cccnc4)ncc3O2)CC1 (stereo not shown) [Example 45, 4-(5-Pyridin-3-yl-2,3-dihydro-furo[2,3-c]pyridin-2-yl)-piperidine-1-carboxylic acid tert-butyl ester] | 6.39
16 | CC(C)(C)OC(=O)N1CCC(C2Cc3cc(-c4ccc(C#N)cc4)ncc3O2)CC1 (stereo not shown) [Example 46, 4-[5-(4-Cyano-phenyl)-2,3-dihydro-furo[2,3-c]pyridin-2-yl]-piperidine-1-carboxylic acid tert-butyl ester] | 7.82
17 | CC(C)(C)OC(=O)N1CCC(C2Cc3cc(-c4ccnc(F)c4)ncc3O2)CC1 (stereo not shown) [Example 47, 4-[5-(2-Fluoro-pyridin-4-yl)-2,3-dihydro-furo[2,3-c]pyridin-2-yl]-piperidine-1-carboxylic acid tert-butyl ester] | 8.10
18 | CC(C)(C)OC(=O)N1CCC(C2Cc3cc(-c4ccc(CS(C)(=O)=O)cn4)ccc3O2)CC1 (stereo not shown) [Example 48, 4-[5-(5-Methanesulfonylmethyl-pyridin-2-yl)-2,3-dihydro-benzofuran-2-yl]-piperidine-1-carboxylic acid tert-butyl ester] | 7.28
19 | CC(C)(C)OC(=O)N1CCC(C2Cc3cc(-c4ccc(CS(C)(=O)=O)cc4)ncc3O2)CC1 (stereo not shown) [Example 49, 4-[5-(4-Methanesulfonylmethyl-phenyl)-2,3-dihydro-furo[2,3-c]pyridin-2-yl]-piperidine-1-carboxylic acid tert-butyl ester] | 7.66
20 | CC(C)(C)OC(=O)N1CCC(C2Cc3cc(-c4ccnnc4)ccc3O2)CC1 (stereo not shown) [Example 50, 4-(5-Pyridazin-4-yl-2,3-dihydro-benzofuran-2-yl)-piperidine-1-carboxylic acid tert-butyl ester] | 6.79
21 | CC(C)(C)OC(=O)N1CCC(C2Cc3cc(-c4ccncc4F)ncc3O2)CC1 (stereo not shown) [Example 51, 4-[5-(3-Fluoro-pyridin-4-yl)-2,3-dihydro-furo[2,3-c]pyridin-2-yl]-piperidine-1-carboxylic acid tert-butyl ester] | 8.00
22 | Cc1cc(-c2cc3c(cn2)OC(C2CCN(C(=O)OC(C)(C)C)CC2)C3)ccn1 (stereo not shown) [Example 52, 4-[5-(2-Methyl-pyridin-4-yl)-2,3-dihydro-furo[2,3-c]pyridin-2-yl]-piperidine-1-carboxylic acid tert-butyl ester] | 7.31
23 | COc1cc(-c2cc3c(cn2)OC(C2CCN(C(=O)OC(C)(C)C)CC2)C3)ccn1 (stereo not shown) [Example 53, 4-[5-(2-Methoxy-pyridin-4-yl)-2,3-dihydro-furo[2,3-c]pyridin-2-yl]-piperidine-1-carboxylic acid tert-butyl ester] | 6.91
24 | CC(C)(C)OC(=O)N1CCC(C2Cc3cc(-c4ccnnc4)ncc3O2)CC1 (stereo not shown) [Example 54, 4-(5-Pyridazin-4-yl-2,3-dihydro-furo[2,3-c]pyridin-2-yl)-piperidine-1-carboxylic acid tert-butyl ester] | 6.58
25 | CC(C)(C)OC(=O)N1CCC(C2Cc3cc(-c4ccnc(C#N)c4)ncc3O2)CC1 (stereo not shown) [Example 55, 4-[5-(2-Cyano-pyridin-4-yl)-2,3-dihydro-furo[2,3-c]pyridin-2-yl]-piperidine-1-carboxylic acid tert-butyl ester] | 7.80
26 | CC(C)(C)OC(=O)N1CCC(C2Cc3cc(-c4ccnc(C(F)(F)F)c4)ncc3O2)CC1 (stereo not shown) [Example 56, 4-[5-(2-Trifluoromethyl-pyridin-4-yl)-2,3-dihydro-furo[2,3-c]pyridin-2-yl]-piperidine-1-carboxylic acid tert-butyl ester] | 6.65
27 | Cn1ccc(-c2cc3c(cn2)OC(C2CCN(C(=O)OC(C)(C)C)CC2)C3)cc1=O (stereo not shown) [Example 57, 4-[5-(1-Methyl-2-oxo-1,2-dihydro-pyridin-4-yl)-2,3-dihydro-furo[2,3-c]pyridin-2-yl]-piperidine-1-carboxylic acid tert-butyl ester] | 6.16
28 | Cn1cc(-c2cc3c(cn2)OC(C2CCN(C(=O)OC(C)(C)C)CC2)C3)ccc1=O (stereo not shown) [Example 58, 4-[5-(1-Methyl-6-oxo-1,6-dihydro-pyridin-3-yl)-2,3-dihydro-furo[2,3-c]pyridin-2-yl]-piperidine-1-carboxylic acid tert-butyl ester] | 6.88
